From PubChem BioAssay (NCI)
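1) Cells in 96-well plates. 2) Compound, 48 h, 5 concentrations. 3) Linear interpolation between surrounding doses. 4) Unreached endpoint = highest concentration. The concentration for 50% growth inhibition is given as GI50. TGI is the concentration that stops growth completely.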

Each molecule was assayed on MCF7 breast (assay: NCI tumour cell line growth inhibition, 48 h).
`C[C@H]1C(=O)O[C@@H]2CCN3CC=C(COC(=O)[C@](C)(O)[C@@]1(C)O)[C@H]23` showed a TGI of over 100 µM.
With `CN(C)C(=O)/C=C/c1c[nH]c(=O)[nH]c1=O` the TGI was over 500 µM.
`CN(C)CCCn1cnc2cc(Cl)c(Cl)cc21` was tested, and the TGI was over 100 µM.
`NCCCn1c2c(c3ccc([N+](=O)[O-])cc3c1=O)C(=O)c1ccccc1-2` gave a GI50 of 0.0122 µM and a TGI of over 50 µM.
`O=C1NI(C#Cc2ccccc2)c2ccccc21` gave a TGI of 94.3 µM.
In the case of `CCc1nc(N)nc(N)c1-c1ccc([N+](C)(C)C)cc1`, the TGI was over 100 µM.
`Cc1cc2c(cc1C(=O)c1ccc(N)cc1)OCO2` gave a TGI of 53.8 µM.
Molecule `NCCc1cc(O)c(O)cc1O` has a TGI of 44.4 µM.
For `COc1ccc(C2=C3SC=c4ccccc4=C3ON=C2c2ccccc2)cc1`, the TGI was over 100 µM.
Molecule `CC(=O)NNc1nc(-c2ccc([N+](=O)[O-])cc2)c(C#N)c(=O)n1C` has a TGI of 97.3 µM.
`COc1cc(C2CC(c3cccc(Nc4ccncc4)c3)=NN2c2ccc(Cl)cc2)cc(OC)c1OC` (stereo not drawn) gave a GI50 of 1.72 µM and a TGI of 3.61 µM.
`CN(C)CCNC(=O)c1cccc2ccc(-c3ccc(F)cc3)nc12` showed a TGI of 20.5 µM.

These molecules were tested on OVCAR-5 ovarian (assay: NCI tumour cell line growth inhibition, 48 h).
Work on `O=C(Nc1ccc([N+](=O)[O-])cc1[N+](=O)[O-])C(=O)C(C(=O)c1ccc2ccccc2c1)C1OC(=O)c2ccccc21` (stereo not drawn) yielded a TGI of 58.2 µM.
`COc1cc(/C=C/C(=O)Oc2ccc(NC(C)=O)cc2)ccc1C(=O)O/C=C/c1ccccc1` showed a TGI of over 100 µM.
`COc1ccc2c(c1)CCCN2CCCCCCCCCCN(CCC(C)C)CCC(C)C` showed a TGI of 28.4 µM.
For `O=P1(c2ccccc2)Nc2ccccc2SSc2ccccc2N1`, the TGI was 36.1 µM.
Molecule `COc1ccc(-c2nc3ncccn3c2-c2ccc(SC)cc2)cc1` has a TGI of 7.06 µM.
`C[C@H]1C(=O)O[C@@H]2CCN3CC=C(COC(=O)[C@](C)(O)[C@@]1(C)O)[C@H]23` gave a TGI of over 100 µM.
`N=C1C(=N)c2ccccc2-c2ccccc21.N=C1C(=N)c2ccccc2-c2ccccc21.N=C1C(=N)c2ccccc2-c2ccccc21.[Cl-].[Ru+2]` gave a TGI of 18.6 µM.
For `CN(C)C(=O)/C=C/c1c[nH]c(=O)[nH]c1=O`, the TGI was over 500 µM.
With `CN(C)CCCn1cnc2cc(Cl)c(Cl)cc21` the TGI was over 100 µM.
In the case of `NCCCn1c2c(c3ccc([N+](=O)[O-])cc3c1=O)C(=O)c1ccccc1-2`, the GI50 was 0.414 µM and the TGI was 1.3 µM.
Work on `CCc1nc(N)nc(N)c1-c1ccc([N+](C)(C)C)cc1` yielded a TGI of over 100 µM.
For `Cc1cc2c(cc1C(=O)c1ccc(N)cc1)OCO2`, the TGI was over 100 µM.
Work on `NCCc1cc(O)c(O)cc1O` yielded a TGI of 61.3 µM.
`COc1ccc(C2=C3SC=c4ccccc4=C3ON=C2c2ccccc2)cc1` was tested, and the TGI was over 100 µM.
`CC(=O)NNc1nc(-c2ccc([N+](=O)[O-])cc2)c(C#N)c(=O)n1C` was tested, and the TGI was 77 µM.
With `COc1cc(C2CC(c3cccc(Nc4ccncc4)c3)=NN2c2ccc(Cl)cc2)cc(OC)c1OC` (stereo not drawn) the GI50 was 1.66 µM and the TGI was 3.13 µM.
Work on `CCCOC(=O)CNC(=O)OC(C)(C)C` yielded a TGI of over 100 µM.
`CN(C)CCNC(=O)c1cccc2ccc(-c3ccc(F)cc3)nc12` showed a TGI of 25.6 µM.

What follows are molecules tested on RPMI-8226 leukemia (assay: NCI tumour cell line growth inhibition, 48 h).
In the case of `Nc1n[nH]c(=O)c2c1c(I)cn2C1OC(CO)C(O)C1O` (stereo not drawn), the TGI was 4.53 µM.
In the case of `O=C(Nc1ccc([N+](=O)[O-])cc1[N+](=O)[O-])C(=O)C(C(=O)c1ccc2ccccc2c1)C1OC(=O)c2ccccc21` (stereo not drawn), the TGI was 68.6 µM.
With `COc1cc(/C=C/C(=O)Oc2ccc(NC(C)=O)cc2)ccc1C(=O)O/C=C/c1ccccc1` the TGI was over 100 µM.
`COc1ccc2c(c1)CCCN2CCCCCCCCCCN(CCC(C)C)CCC(C)C` was tested, and the TGI was 6.18 µM.
In the case of `O=P1(c2ccccc2)Nc2ccccc2SSc2ccccc2N1`, the TGI was 45.3 µM.
Work on `COc1ccc(-c2nc3ncccn3c2-c2ccc(SC)cc2)cc1` yielded a TGI of 29.2 µM.
For `C[C@H]1C(=O)O[C@@H]2CCN3CC=C(COC(=O)[C@](C)(O)[C@@]1(C)O)[C@H]23`, the TGI was over 100 µM.
`N=C1C(=N)c2ccccc2-c2ccccc21.N=C1C(=N)c2ccccc2-c2ccccc21.N=C1C(=N)c2ccccc2-c2ccccc21.[Cl-].[Ru+2]` was tested, and the TGI was 5.4 µM.
`CCOC(=O)c1c2c(n(Cc3ccccc3)c1C)C(=O)C(=O)c1ccccc1-2` was tested, and the TGI was 0.83 µM.
`CN(C)C(=O)/C=C/c1c[nH]c(=O)[nH]c1=O` showed a TGI of over 316 µM.
Work on `CN(C)CCCn1cnc2cc(Cl)c(Cl)cc21` yielded a TGI of over 100 µM.
In the case of `NCCCn1c2c(c3ccc([N+](=O)[O-])cc3c1=O)C(=O)c1ccccc1-2`, the GI50 was 0.0284 µM.
In the case of `O=C1NI(C#Cc2ccccc2)c2ccccc21`, the TGI was over 100 µM.
Molecule `CCc1nc(N)nc(N)c1-c1ccc([N+](C)(C)C)cc1` has a TGI of over 100 µM.
Work on `Cc1cc2c(cc1C(=O)c1ccc(N)cc1)OCO2` yielded a TGI of over 100 µM.
For `NCCc1cc(O)c(O)cc1O`, the TGI was 39.3 µM.
`COc1ccc(C2=C3SC=c4ccccc4=C3ON=C2c2ccccc2)cc1` gave a TGI of over 100 µM.
For `CC(=O)NNc1nc(-c2ccc([N+](=O)[O-])cc2)c(C#N)c(=O)n1C`, the TGI was over 100 µM.
In the case of `CN(C)CCNC(=O)c1cccc2ccc(-c3ccc(F)cc3)nc12`, the TGI was 13.5 µM.

The molecules below were run on SK-MEL-28 melanoma (assay: NCI tumour cell line growth inhibition, 48 h).
For `Nc1n[nH]c(=O)c2c1c(I)cn2C1OC(CO)C(O)C1O` (stereo not drawn), the TGI was 3.47 µM.
`O=C(Nc1ccc([N+](=O)[O-])cc1[N+](=O)[O-])C(=O)C(C(=O)c1ccc2ccccc2c1)C1OC(=O)c2ccccc21` (stereo not drawn) showed a TGI of 48 µM.
`COc1cc(/C=C/C(=O)Oc2ccc(NC(C)=O)cc2)ccc1C(=O)O/C=C/c1ccccc1` showed a TGI of over 100 µM.
`COc1ccc2c(c1)CCCN2CCCCCCCCCCN(CCC(C)C)CCC(C)C` was tested, and the TGI was 27.2 µM.
For `O=P1(c2ccccc2)Nc2ccccc2SSc2ccccc2N1`, the TGI was 34.3 µM.
`COc1ccc(-c2nc3ncccn3c2-c2ccc(SC)cc2)cc1` was tested, and the TGI was over 100 µM.
`C[C@H]1C(=O)O[C@@H]2CCN3CC=C(COC(=O)[C@](C)(O)[C@@]1(C)O)[C@H]23` showed a TGI of over 100 µM.
For `N=C1C(=N)c2ccccc2-c2ccccc21.N=C1C(=N)c2ccccc2-c2ccccc21.N=C1C(=N)c2ccccc2-c2ccccc21.[Cl-].[Ru+2]`, the TGI was 3.79 µM.
Work on `CCOC(=O)c1c2c(n(Cc3ccccc3)c1C)C(=O)C(=O)c1ccccc1-2` yielded a TGI of 0.601 µM.
`CN(C)C(=O)/C=C/c1c[nH]c(=O)[nH]c1=O` was tested, and the TGI was over 500 µM.
With `CN(C)CCCn1cnc2cc(Cl)c(Cl)cc21` the TGI was 41.8 µM.
Work on `NCCCn1c2c(c3ccc([N+](=O)[O-])cc3c1=O)C(=O)c1ccccc1-2` yielded a GI50 of 0.497 µM.
Molecule `O=C1NI(C#Cc2ccccc2)c2ccccc21` has a TGI of over 100 µM.
`CCc1nc(N)nc(N)c1-c1ccc([N+](C)(C)C)cc1` was tested, and the TGI was over 100 µM.
`NCCc1cc(O)c(O)cc1O` was tested, and the TGI was 97.5 µM.
With `COc1ccc(C2=C3SC=c4ccccc4=C3ON=C2c2ccccc2)cc1` the TGI was over 100 µM.
With `CC(=O)NNc1nc(-c2ccc([N+](=O)[O-])cc2)c(C#N)c(=O)n1C` the TGI was over 100 µM.
For `COc1cc(C2CC(c3cccc(Nc4ccncc4)c3)=NN2c2ccc(Cl)cc2)cc(OC)c1OC` (stereo not drawn), the GI50 was 1.68 µM and the TGI was 3.12 µM.
Work on `CCCOC(=O)CNC(=O)OC(C)(C)C` yielded a TGI of over 100 µM.
`CN(C)CCNC(=O)c1cccc2ccc(-c3ccc(F)cc3)nc12` showed a TGI of 20.1 µM.

The molecules below were run on SNB-75 CNS (assay: NCI tumour cell line growth inhibition, 48 h).
`Nc1n[nH]c(=O)c2c1c(I)cn2C1OC(CO)C(O)C1O` (stereo not drawn) was tested, and the TGI was 2.81 µM.
Work on `O=C(Nc1ccc([N+](=O)[O-])cc1[N+](=O)[O-])C(=O)C(C(=O)c1ccc2ccccc2c1)C1OC(=O)c2ccccc21` (stereo not drawn) yielded a TGI of 50.7 µM.
`COc1cc(/C=C/C(=O)Oc2ccc(NC(C)=O)cc2)ccc1C(=O)O/C=C/c1ccccc1` gave a TGI of over 100 µM.
With `O=P1(c2ccccc2)Nc2ccccc2SSc2ccccc2N1` the TGI was 39.4 µM.
`COc1ccc(-c2nc3ncccn3c2-c2ccc(SC)cc2)cc1` was tested, and the TGI was over 100 µM.
For `C[C@H]1C(=O)O[C@@H]2CCN3CC=C(COC(=O)[C@](C)(O)[C@@]1(C)O)[C@H]23`, the TGI was over 100 µM.
`N=C1C(=N)c2ccccc2-c2ccccc21.N=C1C(=N)c2ccccc2-c2ccccc21.N=C1C(=N)c2ccccc2-c2ccccc21.[Cl-].[Ru+2]` showed a TGI of 4.25 µM.
For `CCOC(=O)c1c2c(n(Cc3ccccc3)c1C)C(=O)C(=O)c1ccccc1-2`, the TGI was 2.69 µM.
With `CN(C)C(=O)/C=C/c1c[nH]c(=O)[nH]c1=O` the TGI was over 500 µM.
`CN(C)CCCn1cnc2cc(Cl)c(Cl)cc21` showed a TGI of 98.9 µM.
For `NCCCn1c2c(c3ccc([N+](=O)[O-])cc3c1=O)C(=O)c1ccccc1-2`, the GI50 was 0.835 µM and the TGI was 2.67 µM.
Work on `CCc1nc(N)nc(N)c1-c1ccc([N+](C)(C)C)cc1` yielded a TGI of over 100 µM.
Work on `NCCc1cc(O)c(O)cc1O` yielded a TGI of 70.6 µM.
`CC(=O)NNc1nc(-c2ccc([N+](=O)[O-])cc2)c(C#N)c(=O)n1C` showed a TGI of 54.9 µM.
Molecule `COc1cc(C2CC(c3cccc(Nc4ccncc4)c3)=NN2c2ccc(Cl)cc2)cc(OC)c1OC` (stereo not drawn) has a GI50 of 1.28 µM and a TGI of 2.85 µM.
`CCCOC(=O)CNC(=O)OC(C)(C)C` showed a TGI of over 100 µM.
For `CN(C)CCNC(=O)c1cccc2ccc(-c3ccc(F)cc3)nc12`, the TGI was 19.6 µM.
